Laboratory results as given in patent US5424328A, “Phenyl-imidazolidinone derivatives” (Farmitalia Carlo Erba S.r.l., priority 1992, dated 1995).

What was measured:
5HT3 receptor = biological target: T1, 5HT3 receptor (Rattus norvegicus, UniProt P35563); test: Inhibition of the von Bezold-Jarisch chemoreflex evoked by 5-HT in the anesthetized rat (in vivo 5HT3 antagonist activity); conditions: 5-HT 20 ug/kg i.v.; for % inhibition of the Bezold-Jarisch reflex: mean ± S.E.M., 6 animals, * p < 0.01 vs controls; for ED50: iv, read-out: ED50 (limits)
T1 construct: in the anesthetized rat; from tissue; host or cells: whole anesthetized rat (in vivo); endogenous receptor
T1 sequence (P35563 24-483): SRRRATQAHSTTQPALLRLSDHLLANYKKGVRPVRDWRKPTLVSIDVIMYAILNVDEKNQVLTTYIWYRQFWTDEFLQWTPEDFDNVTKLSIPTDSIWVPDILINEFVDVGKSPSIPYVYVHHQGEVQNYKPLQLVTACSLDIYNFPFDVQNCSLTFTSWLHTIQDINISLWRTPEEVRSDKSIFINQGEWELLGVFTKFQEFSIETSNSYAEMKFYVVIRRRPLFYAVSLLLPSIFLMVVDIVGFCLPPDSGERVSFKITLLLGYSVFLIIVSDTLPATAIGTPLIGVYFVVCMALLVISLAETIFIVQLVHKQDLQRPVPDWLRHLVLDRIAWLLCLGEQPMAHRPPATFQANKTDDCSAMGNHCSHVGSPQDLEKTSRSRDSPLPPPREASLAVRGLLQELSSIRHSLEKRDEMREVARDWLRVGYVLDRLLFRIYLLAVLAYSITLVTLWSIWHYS
Experimental: Pharmacol. 326, 36-44 (1984).
The following Table I reports the in vivo 5HT3 antagonist activity data obtained in this test for a representative group of compounds of the invention.
Inhibition of the Bezold-Jarisch reflex elicited by 5-HT
(20 ug/kg i.v.) by i.v. FCE-compounds in the anesthetized
Values are mean ± S.E.M. from 6 animals.
*p < 0.01 vs controls (Dunnett's test).

[1] = biological target: T2, serotonin 5-HT3 receptors (Rattus norvegicus, UniProt P35563); test: Affinity for serotonin 5-HT3 receptors in rat entorhinal cortex, radioligand 3H-BRL 43694 binding
T2 construct: in rat entorhinal cortex; from tissue; host or cells: rat entorhinal cortex
T2 sequence (P35563 24-483): T1 sequence (P35563 24-483)
Experimental: The affinity for serotonin 5-HT3 receptors was assessed for instance in rat entorhinal cortex using a selective radioligand 3H-BRL 43694 as described by Nelson and Thomas (1989).
NELSON D. R. and THOMAS D. R., [3H]-BRL 43694 (Granisetron), a specific ligand for 5-HT3 binding sites in rat brain cortical membranes, Biochem. Pharmac., 38, 1693-1695, 1989. The affinity data for a representative group of compounds of the invention are set out in following Table II.

Row | % inhibition of the Bezold-Jarisch reflex (5HT3 receptor; dose 1 μg/kg i.v.) [%] | % inhibition of the Bezold-Jarisch reflex (5HT3 receptor; dose 3 μg/kg i.v.) [%] | % inhibition of the Bezold-Jarisch reflex (5HT3 receptor; dose 10 μg/kg i.v.) [%] | ED50 (5HT3 receptor) [µg/kg] | IC50 [1] [nM] | % inhibition of the Bezold-Jarisch reflex (5HT3 receptor; dose 30 μg/kg i.v.) [%] | % inhibition of the Bezold-Jarisch reflex (5HT3 receptor; dose 0.5 μg/kg i.v.) [%] | % inhibition of the Bezold-Jarisch reflex (5HT3 receptor; dose 2 μg/kg i.v.) [%] | % inhibition of the Bezold-Jarisch reflex (5HT3 receptor; dose 8 μg/kg i.v.) [%] | % inhibition of the Bezold-Jarisch reflex (5HT3 receptor; dose 100 μg/kg i.v.) [%] | Compound
1 | 7.0 ± 6.0 | 37.8 ± 5.8 | 89.7 ± 1.8 | 5.26 | 2.1 | – | – | – | – | – | Cc1[nH]cnc1CN1CCN(c2cccc(Cl)c2)C1=O [FCE 27733, 1-(5-methyl-1H-imidazol-4-yl)methyl-3-(3-chlorophenyl)-imidazolidin-2-one]
2 | – | 30.0 ± 5.9 | 64.2 ± 5.0 | 6.5 | 2.7 | 84.4 ± 4.2 | – | – | – | – | Cc1[nH]cnc1CN1CCN(c2cccc(Br)c2)C1=O [FCE 28159, 1-(5-methyl-1H-imidazol-4-yl)methyl-3-(3-bromophenyl)-imidazolidin-2-one]
3 | 18.2 ± 2.4 | – | – | 2.2 | 0.42 | – | 1.5 ± 4.8 | 55.5 ± 7.1 | 88.7 ± 1.8 | – | Cc1[nH]cnc1CN1CCN(c2cc(Cl)cc(Cl)c2)C1=O [FCE 28232, 1-(5-methyl-1H-imidazol-4-yl)methyl-3-(3,5-dichlorophenyl)-imidazolidin-2-one]
4 | – | – | 14.3 ± 9.2 | 32.2 | 11 | 44.5 ± 7.3 | – | – | – | 87.7 ± 7.0 | Cc1[nH]cnc1CN1CCN(c2cccc(C#N)c2)C1=O [FCE 28276, 1-(5-methyl-1H-imidazol-4-yl)methyl-3-(3-cyanophenyl)-imidazolidin-2-one]
5 | 14.7 ± 3.8 | 37.4 ± 6.5 | 79.4 ± 4.1 | 3.9 | 14 | – | – | – | – | – | Cc1[nH]cnc1CN1CCN(c2ccccc2)C1=O [FCE 28277, 1-(5-methyl-1H-imidazol-4-yl)methyl-3-phenyl-imidazolidin-2-one]
6 | – | – | 16.8 ± 8.1 | 28.6 | 6.7 | 54.7 ± 2.3 | – | – | – | 85.8 ± 1.2 | CSc1cccc(N2CCN(Cc3nc[nH]c3C)C2=O)c1 [FCE 28278, 1-(5-methyl-1H-imidazol-4-yl)methyl-3-(3-methylthiophenyl)-imidazolidin-2-one]
7 | – | – | – | – | 44 | – | – | – | – | 56.1 ± 10.3 | O=C1N(Cc2c[nH]cn2)CCN1c1ccccc1 [FCE 28307, 1-(1H-imidazol-4-yl)methyl-3-phenyl-imidazolidin-2-one]
8 | 14.6 ± 7.3 | 51.1 ± 4.3 | 83.3 ± 3.5 | 3.1 | 4 | – | – | – | – | – | Cc1cccc(N2CCN(Cc3nc[nH]c3C)C2=O)c1 [FCE 28355, 1-(5-methyl-1H-imidazol-4-yl)methyl-3-(3-methylphenyl)-imidazolidin-2-one]
9 | – | – | – | – | 1.8 | – | – | – | – | 88.6 ± 2.4 | Cc1cc(C)cc(N2CCN(Cc3nc[nH]c3C)C2=O)c1 [FCE 28356, 1-(5-methyl-1H-imidazol-4-yl)methyl-3-(3,5-dimethylphenyl)-imidazolidin-2-one]
